The target in one experiment is T1, HiBit-BRM fusion protein (Homo sapiens, UniProt P51531).
T1 construct: expressed in transfected cells
As to the kind of experiment: HiBiT-BRM cell-based degradation assay (Nano-Glo HiBiT Lytic Detection, 24 h). To be noted: HeLa cells expressing HiBiT-BRM; for DC50: read-out: BRM HiBit Degradation IC50; for BRM HiBit Degradation Maximum measured: top dose 30 μM. In short, it runs like this:
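HeLa cells stably expressing HiBiT-BRM were treated for 24 h with compounds (10-point 3-fold dilutions, 30 μM final top dose, in duplicate). HiBiT was detected by lytic LgBiT complementation luminescence. % degradation was normalized to DMSO (high control) and 2 μM of a reference BRM/BRG1 degrader (low control).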

Experiment [1] has as its target T2, HiBit-BRG1 fusion protein (Homo sapiens, UniProt P51532).
T2 construct: expressed in transfected cells
As to the kind of experiment: HiBiT-BRG1 cell-based degradation assay (Nano-Glo HiBiT Lytic Detection, 24 h). To be noted: HeLa cells expressing HiBit-BRG1 and LgBit; for DC50: read-out: BRG1 HiBit Degradation IC50; for Dmax: HeLa, top dose 30 μM, read-out: BRG1 HiBit Degradation Maximum measured. In short, it runs like this: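 Stable HeLa line expressing HiBiT-BRG1 and LgBiT, seeded at 5000 cells/well; luminescence read after lytic Nano-Glo HiBiT reagent and 10 min shaking at RT. % degradation normalised between DMSO (high control) and 2 μM reference BRM/BRG1 degrader (low control).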

T1 sequence (P51531 whole entry, the tested form may be a part): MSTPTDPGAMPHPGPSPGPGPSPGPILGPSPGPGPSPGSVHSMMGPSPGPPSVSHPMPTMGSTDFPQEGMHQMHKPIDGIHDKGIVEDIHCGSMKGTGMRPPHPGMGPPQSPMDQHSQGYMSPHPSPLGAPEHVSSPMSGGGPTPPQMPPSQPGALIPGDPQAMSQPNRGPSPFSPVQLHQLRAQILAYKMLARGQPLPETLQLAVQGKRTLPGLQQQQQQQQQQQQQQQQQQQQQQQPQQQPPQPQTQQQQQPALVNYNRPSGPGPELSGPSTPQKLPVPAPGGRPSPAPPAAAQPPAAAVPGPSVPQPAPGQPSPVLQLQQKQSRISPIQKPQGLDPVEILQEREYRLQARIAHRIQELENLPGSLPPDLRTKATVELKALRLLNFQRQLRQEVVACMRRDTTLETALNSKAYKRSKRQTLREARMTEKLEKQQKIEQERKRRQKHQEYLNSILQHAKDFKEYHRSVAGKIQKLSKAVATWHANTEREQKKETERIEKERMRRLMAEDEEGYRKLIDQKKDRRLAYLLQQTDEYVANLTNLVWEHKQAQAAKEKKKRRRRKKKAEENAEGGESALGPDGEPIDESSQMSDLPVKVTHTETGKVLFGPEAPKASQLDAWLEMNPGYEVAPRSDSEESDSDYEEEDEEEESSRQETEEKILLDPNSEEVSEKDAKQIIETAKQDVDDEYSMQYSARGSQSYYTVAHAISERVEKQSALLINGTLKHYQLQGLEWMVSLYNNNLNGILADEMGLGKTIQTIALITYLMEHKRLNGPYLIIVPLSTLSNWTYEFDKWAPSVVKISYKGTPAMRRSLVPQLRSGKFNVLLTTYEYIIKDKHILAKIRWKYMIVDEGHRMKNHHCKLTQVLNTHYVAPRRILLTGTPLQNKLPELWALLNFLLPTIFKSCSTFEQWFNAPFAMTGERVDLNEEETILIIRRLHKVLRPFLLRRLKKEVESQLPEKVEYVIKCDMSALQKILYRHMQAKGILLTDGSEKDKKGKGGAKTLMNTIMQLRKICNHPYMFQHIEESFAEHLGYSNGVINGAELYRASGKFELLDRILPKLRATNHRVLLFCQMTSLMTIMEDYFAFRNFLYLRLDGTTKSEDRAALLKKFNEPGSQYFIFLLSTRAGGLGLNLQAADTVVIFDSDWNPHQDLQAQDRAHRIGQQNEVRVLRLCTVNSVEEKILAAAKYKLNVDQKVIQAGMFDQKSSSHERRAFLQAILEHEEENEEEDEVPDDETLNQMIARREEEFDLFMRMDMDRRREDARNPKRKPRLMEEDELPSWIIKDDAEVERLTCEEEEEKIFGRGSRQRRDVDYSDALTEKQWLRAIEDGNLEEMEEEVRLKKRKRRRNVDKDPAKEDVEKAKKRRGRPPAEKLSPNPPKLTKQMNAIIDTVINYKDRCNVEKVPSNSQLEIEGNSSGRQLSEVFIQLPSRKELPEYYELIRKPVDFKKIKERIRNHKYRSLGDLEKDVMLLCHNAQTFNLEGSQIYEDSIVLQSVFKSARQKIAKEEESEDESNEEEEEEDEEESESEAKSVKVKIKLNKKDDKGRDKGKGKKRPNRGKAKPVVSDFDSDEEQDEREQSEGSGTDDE
T2 sequence (P51532 whole entry, the tested form may be a part): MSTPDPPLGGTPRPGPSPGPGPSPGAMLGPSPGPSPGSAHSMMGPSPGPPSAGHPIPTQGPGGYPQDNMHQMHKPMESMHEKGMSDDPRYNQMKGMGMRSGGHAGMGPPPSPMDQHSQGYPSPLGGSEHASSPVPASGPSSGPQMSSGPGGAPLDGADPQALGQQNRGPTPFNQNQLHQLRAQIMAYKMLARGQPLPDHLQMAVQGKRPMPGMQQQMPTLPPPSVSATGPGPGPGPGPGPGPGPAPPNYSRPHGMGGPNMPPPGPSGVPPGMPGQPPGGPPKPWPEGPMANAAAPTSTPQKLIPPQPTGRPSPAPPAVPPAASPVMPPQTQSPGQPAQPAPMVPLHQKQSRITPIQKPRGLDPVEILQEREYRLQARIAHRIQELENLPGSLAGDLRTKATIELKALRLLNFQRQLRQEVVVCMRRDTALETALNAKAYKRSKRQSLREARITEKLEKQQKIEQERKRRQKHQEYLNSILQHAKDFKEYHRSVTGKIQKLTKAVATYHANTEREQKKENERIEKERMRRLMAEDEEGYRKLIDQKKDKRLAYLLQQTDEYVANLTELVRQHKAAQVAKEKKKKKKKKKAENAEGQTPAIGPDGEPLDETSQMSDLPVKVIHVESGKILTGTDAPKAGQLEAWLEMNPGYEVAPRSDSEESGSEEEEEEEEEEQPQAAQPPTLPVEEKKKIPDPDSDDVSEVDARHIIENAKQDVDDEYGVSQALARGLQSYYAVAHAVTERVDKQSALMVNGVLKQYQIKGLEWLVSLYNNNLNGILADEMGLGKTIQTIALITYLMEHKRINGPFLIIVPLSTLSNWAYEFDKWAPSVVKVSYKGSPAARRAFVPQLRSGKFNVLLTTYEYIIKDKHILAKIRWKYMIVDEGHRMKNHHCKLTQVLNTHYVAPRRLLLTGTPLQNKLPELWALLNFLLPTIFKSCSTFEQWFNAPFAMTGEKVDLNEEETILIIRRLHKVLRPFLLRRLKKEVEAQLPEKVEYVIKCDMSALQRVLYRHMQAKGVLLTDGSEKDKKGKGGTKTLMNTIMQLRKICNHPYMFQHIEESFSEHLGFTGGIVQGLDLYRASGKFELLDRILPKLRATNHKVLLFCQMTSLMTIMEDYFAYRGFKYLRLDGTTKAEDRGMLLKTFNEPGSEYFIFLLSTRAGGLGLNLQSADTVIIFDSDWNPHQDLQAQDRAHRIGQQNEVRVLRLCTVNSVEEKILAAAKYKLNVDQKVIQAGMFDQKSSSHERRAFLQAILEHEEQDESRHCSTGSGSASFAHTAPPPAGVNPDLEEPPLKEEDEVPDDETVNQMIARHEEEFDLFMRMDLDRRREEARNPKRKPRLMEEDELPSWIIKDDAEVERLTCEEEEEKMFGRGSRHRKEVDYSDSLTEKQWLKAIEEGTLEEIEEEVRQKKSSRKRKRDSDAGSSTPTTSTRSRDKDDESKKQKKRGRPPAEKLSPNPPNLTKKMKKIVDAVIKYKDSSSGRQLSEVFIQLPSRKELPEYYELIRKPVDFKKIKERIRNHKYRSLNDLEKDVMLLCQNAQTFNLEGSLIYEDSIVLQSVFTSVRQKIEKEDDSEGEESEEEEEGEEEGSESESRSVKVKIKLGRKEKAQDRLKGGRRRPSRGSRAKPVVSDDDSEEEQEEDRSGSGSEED

In the case of `Cc1ncsc1-c1ccc(CNC(=O)[C@@H]2C[C@@H](O)CN2C(=O)[C@@H](NC(=O)CCCCCCCCC(=O)NCCOc2cc(-c3cccc(-c4csc(NC(=O)CNC(=O)c5ccn(S(C)(=O)=O)c5)n4)c3)ccn2)C(C)(C)C)cc1` [Compound 69, N1-((S)-1-((2S,4R)-4-hydroxy-2-((4-(4-methylthiazol-5-yl)benzyl)carbamoyl)pyrrolidin-1-yl)-3,3-dimethyl-1-oxobutan-2-yl)-N10-(2-((4-(3-(2-(2-(1-(methylsulfonyl)-1H-pyrrole-3-carboxamido)acetamido)thiazol-4-yl)phenyl)pyridin-2-yl)oxy)ethyl)decanediamide], at HiBit-BRM fusion protein, the DC50 was less than 0.1 µM and the “BRM HiBit Degradation Maximum measured” value was “A (‘A’ = Maximum degradation >75%)”. In addition, in experiment [1], the DC50 is 0.1 to 1 µM and the Dmax was more than 75%.
On the same counts, the results for `Cc1ncsc1-c1ccc(CNC(=O)[C@@H]2C[C@@H](O)CN2C(=O)[C@@H](NC(=O)COCCOCC(=O)NCCOc2cc(-c3cccc(-c4csc(NC(=O)CNC(=O)c5ccn(S(C)(=O)=O)c5)n4)c3)ccn2)C(C)(C)C)cc1` [Compound 71, N-(2-((4-(3-(2-(((S)-13-((2S,4R)-4-hydroxy-2-((4-(4-methylthiazol-5-yl)benzyl)carbamoyl)pyrrolidine-1-carbonyl)-14,14-dimethyl-4,11-dioxo-6,9-dioxa-3,12-diazapentadecyl)oxy)pyridin-4-yl)phenyl)thiazol-2-yl)amino)-2-oxoethyl)-1-(methylsulfonyl)-1H-pyrrole-3-carboxamide] are more than 10 µM, “C (‘C’ = Maximum degradation <50%)”, more than 10 µM and less than 50%.
On the same counts, the results for `Cc1ncsc1-c1ccc(CNC(=O)[C@@H]2C[C@@H](O)CN2C(=O)[C@@H](NC(=O)COCC(=O)N2CCN(c3cc(-c4cccc(-c5csc(NC(=O)CNC(=O)c6ccn(S(C)(=O)=O)c6)n5)c4)ccn3)CC2)C(C)(C)C)cc1` [Compound 72, N-[2-[[4-[3-[2-[4-[2-[2-[[(1S)-1-[(2S,4R)-4-hydroxy-2-[[4-(4-methylthiazol-5-yl)phenyl]methylcarbamoyl]pyrrolidine-1-carbonyl]-2,2-dimethyl-propyl]amino]-2-oxo-ethoxy]acetyl]piperazin-1-yl]-4-pyridyl]phenyl]thiazol-2-yl]amino]-2-oxo-ethyl]-1-methylsulfonyl-pyrrole-3-carboxamide] are more than 10 µM, “C (‘C’ = Maximum degradation <50%)”, more than 10 µM and less than 50%.
The matching figures for `CS(=O)(=O)n1ccc(C(=O)NCC(=O)Nc2nc(-c3cccc(-c4ccnc(N5CCN(C(=O)CCOCCOCCOc6ccc7c(c6)C(=O)N(C6CCC(=O)NC6=O)C7=O)CC5)c4)c3)cs2)c1` (centres unmarked) [Compound 73, N-[2-[[4-[3-[2-[4-[3-[2-[2-[2-(2,6-dioxo-3-piperidyl)-1,3-dioxo-isoindolin-5-yl]oxyethoxy]ethoxy]propanoyl]piperazin-1-yl]-4-pyridyl]phenyl]thiazol-2-yl]amino]-2-oxo-ethyl]-1-methylsulfonyl-pyrrole-3-carboxamide]: 0.1 to 1 µM, “A (‘A’ = Maximum degradation >75%)”, 0.1 to 1 µM and more than 75%.
With `Cc1ncsc1-c1ccc(CNC(=O)[C@@H]2C[C@@H](O)CN2C(=O)[C@@H](NC(=O)CCC(=O)N2CCN(c3cc(-c4cccc(-c5csc(NC(=O)CNC(=O)c6ccn(S(C)(=O)=O)c6)n5)c4)ccn3)CC2)C(C)(C)C)cc1` [Compound 74, N-[2-[[4-[3-[2-[4-[4-[[(1S)-1-[(2S,4R)-4-hydroxy-2-[[4-(4-methylthiazol-5-yl)phenyl]methylcarbamoyl]pyrrolidine-1-carbonyl]-2,2-dimethyl-propyl]amino]-4-oxo-butanoyl]piperazin-1-yl]-4-pyridyl]phenyl]thiazol-2-yl]amino]-2-oxo-ethyl]-1-methylsulfonyl-pyrrole-3-carboxamide], at HiBit-BRM fusion protein, the DC50 is more than 10 µM and the “BRM HiBit Degradation Maximum measured” value is given as “C (‘C’ = Maximum degradation <50%)”. In experiment [1], the DC50 is more than 10 µM and the Dmax was less than 50%.
As to `Cc1ncsc1-c1ccc(CNC(=O)[C@@H]2C[C@@H](O)CN2C(=O)[C@@H](NC(=O)COCCOCC(=O)N2CCN(c3cc(-c4cccc(-c5csc(NC(=O)CNC(=O)c6ccn(S(C)(=O)=O)c6)n5)c4)ccn3)CC2)C(C)(C)C)cc1` [Compound 75, N-(2-((4-(3-(2-(4-(2-(2-(2-(((S)-1-((2S,4R)-4-hydroxy-2-((4-(4-methylthiazol-5-yl)benzyl)carbamoyl)pyrrolidin-1-yl)-3,3-dimethyl-1-oxobutan-2-yl)amino)-2-oxoethoxy)ethoxy)acetyl)piperazin-1-yl)pyridin-4-yl)phenyl)thiazol-2-yl)amino)-2-oxoethyl)-1-(methylsulfonyl)-1H-pyrrole-3-carboxamide], on HiBit-BRM fusion protein, the DC50 lay within 0.1 to 1 µM; the “BRM HiBit Degradation Maximum measured” value is “B (‘B’ = Maximum degradation ≥50% and ≤75%)”. Further, in experiment [1], the DC50 is 0.1 to 1 µM and the Dmax is more than 75%.
Take `Cc1ncsc1-c1ccc(CNC(=O)[C@@H]2C[C@@H](O)CN2C(=O)[C@@H](NC(=O)CCC(=O)NCCOc2cc(-c3cccc(-c4csc(NC(=O)CNC(=O)c5ccn(S(C)(=O)=O)c5)n4)c3)ccn2)C(C)(C)C)cc1` [Compound 76, N′-[(1S)-1-[(2S,4R)-4-hydroxy-2-[[4-(4-methylthiazol-5-yl)phenyl]methylcarbamoyl]pyrrolidine-1-carbonyl]-2,2-dimethyl-propyl]-N-[2-[[4-[3-[2-[[2-[(1-methylsulfonylpyrrole-3-carbonyl)amino]acetyl]amino]thiazol-4-yl]phenyl]-2-pyridyl]oxy]ethyl]butanediamide]: on HiBit-BRM fusion protein, the DC50 is more than 10 µM and the “BRM HiBit Degradation Maximum measured” value is reported as “C (‘C’ = Maximum degradation <50%)”. In experiment [1], the DC50 is more than 10 µM and the Dmax is less than 50%.
Regarding `Cc1ncsc1-c1ccc(CNC(=O)[C@@H]2C[C@@H](O)CN2C(=O)[C@@H](NC(=O)CCCC(=O)NCCOc2cc(-c3cccc(-c4csc(NC(=O)CNC(=O)c5ccn(S(C)(=O)=O)c5)n4)c3)ccn2)C(C)(C)C)cc1` [Compound 77, N1-((S)-1-((2S,4R)-4-hydroxy-2-((4-(4-methylthiazol-5-yl)benzyl)carbamoyl)pyrrolidin-1-yl)-3,3-dimethyl-1-oxobutan-2-yl)-N5-(2-((4-(3-(2-(2-(1-(methylsulfonyl)-1H-pyrrole-3-carboxamido)acetamido)thiazol-4-yl)phenyl)pyridin-2-yl)oxy)ethyl)glutaramide], at HiBit-BRM fusion protein, the DC50 is more than 10 µM and the “BRM HiBit Degradation Maximum measured” value is on record as “C (‘C’ = Maximum degradation <50%)”. Besides, in experiment [1], the DC50 was more than 10 µM and the Dmax was less than 50%.
As to `Cc1ncsc1-c1ccc(CNC(=O)[C@@H]2C[C@@H](O)CN2C(=O)[C@@H](NC(=O)COCC(=O)NCCOc2cc(-c3cccc(-c4csc(NC(=O)CNC(=O)c5ccn(S(C)(=O)=O)c5)n4)c3)ccn2)C(C)(C)C)cc1` [Compound 78, N-[2-[[4-[3-[2-[2-[[2-[2-[[(1S)-1-[(2S,4R)-4-hydroxy-2-[[4-(4-methylthiazol-5-yl)phenyl]methylcarbamoyl]pyrrolidine-1-carbonyl]-2,2-dimethyl-propyl]amino]-2-oxo-ethoxy]acetyl]amino]ethoxy]-4-pyridyl]phenyl]thiazol-2-yl]amino]-2-oxo-ethyl]-1-methylsulfonyl-pyrrole-3-carboxamide], at HiBit-BRM fusion protein, the DC50 was more than 10 µM and the “BRM HiBit Degradation Maximum measured” value was “C (‘C’ = Maximum degradation <50%)”. Moreover, in experiment [1], the DC50 was more than 10 µM and the Dmax is less than 50%.
`Cc1ncsc1-c1ccc(CNC(=O)[C@@H]2C[C@@H](O)CN2C(=O)[C@@H](NC(=O)CCCC(=O)N2CCN(c3cc(-c4cccc(-c5csc(NC(=O)CNC(=O)c6ccn(S(C)(=O)=O)c6)n5)c4)ccn3)CC2)C(C)(C)C)cc1` [Compound 79, N-(2-((4-(3-(2-(4-(5-(((S)-1-((2S,4R)-4-hydroxy-2-((4-(4-methylthiazol-5-yl)benzyl)carbamoyl)pyrrolidin-1-yl)-3,3-dimethyl-1-oxobutan-2-yl)amino)-5-oxopentanoyl)piperazin-1-yl)pyridin-4-yl)phenyl)thiazol-2-yl)amino)-2-oxoethyl)-1-(methylsulfonyl)-1H-pyrrole-3-carboxamide]: on HiBit-BRM fusion protein, the DC50 is more than 10 µM and the “BRM HiBit Degradation Maximum measured” value is “C (‘C’ = Maximum degradation <50%)”. Also, in experiment [1], the DC50 is more than 10 µM and the Dmax is less than 50%.
In the case of `CS(=O)(=O)n1ccc(C(=O)NCC(=O)Nc2nc(-c3cccc(-c4ccnc(OCCNC(=O)C5CC5CNC(=O)COc5ccc6c(c5)C(=O)N(C5CCC(=O)NC5=O)C6=O)c4)c3)cs2)c1` (centres unmarked) [Compound 80, N-[2-[[4-[3-[2-[2-[[2-[[[2-[2-(2,6-dioxo-3-piperidyl)-1,3-dioxoisoindolin-5-yl]oxyacetyl]amino]methyl]cyclopropanecarbonyl]amino]ethoxy]-4-pyridyl]phenyl]thiazol-2-yl]amino]-2-oxoethyl]-1-methylsulfonyl-pyrrole-3-carboxamide], at HiBit-BRM fusion protein, the DC50 was more than 10 µM and the “BRM HiBit Degradation Maximum measured” value is recorded as “C (‘C’ = Maximum degradation <50%)”. In experiment [1], the DC50 was more than 10 µM and the Dmax is less than 50%.
